# From US10568921B1, “Extract of Vicia faba beans” (priority 2018, dated 2020)
# Where “and” joins values, the source holds several entries; their conditions need not be identical. Identical values can stand only once.
# Tested on: strychnine-induced convulsions
# Test: Strychnine-induced convulsions in mice, i.p. pretreatment with test substance
# Type: in vivo, BALB/c mice
# [1] = 50 mg/kg i.p. + strychnine 0.45 mg/kg i.p., individual mice No. 1-10
structure (smiles),measurement,setting,value
"CCC1(c2ccccc2)C(=O)NC(=O)NC1=O [Phenobarbitone, phenobarbitone]",Survival recovered time after strychnine injection,[1],80 minutes (3×) and 90 minutes and 70 minutes (3×) and 75 minutes (3×)
same,Time to first convulsion,[1],5 minutes and 7 minutes (3×) and 6.5 minutes and 8 minutes (2×) and 9 minutes (2×) and 10 minutes
same,"Survival recovered time after strychnine injection, mean","50 mg/kg i.p. + strychnine 0.45 mg/kg i.p., mean of 10 mice",76.5 ± 5.58 min
same,Protection against strychnine-induced convulsions (in words),"50 mg/kg i.p. before strychnine (A-1 twenty minutes, phenobarbitone 15 minutes), mice","protected against the strychnine-induced convulsions, completely"
